In general, inhibition refers to the drop in the measured response relative to a control, in per cent. By IC50 is commonly meant the point on the concentration scale where inhibition reaches its midpoint.

One assay addresses T1, β-secretase (BACE) (Homo sapiens, UniProt P56817).
T1 construct: purchased Panvera
Put plainly: In Vitro BACE FS1 % Inhibition Assay (Example 10). The assay is classed as biochemical. Particulars: FS1 substrate, values below about 25% (including negative) within noise; for % Inhibition (Example 10) @ 0.3 μM: 0.3 μM compound; for % Inhibition (Example 10) @ 1 μM: 1 μM compound; for % Inhibition (Example 10) @ 3 μM: 3 μM compound. Here is the method: The following assay buffers were prepared and used in this assay: (1) enzyme assay buffer (0.05 M sodium acetate, pH5, 0.1% PEG8000 (w/v)), (2) substrate assay buffer (0.05 M sodium acetate, pH5), and (3) compound vehicle (30% DMSO in 50 mM HEPES, pH 7.4).
The FS1-substrate stock solution was prepared in DMSO as a 10 mg/mL solution. The FS1-substrate working solution was prepared by diluting the 10 mg/mL stock solution with substrate assay buffer to a final concentration of 300 μg/mL. The β-secretase (BACE) working solution was prepared by diluting a 0.83 mg/mL BACE stock solution with enzyme assay buffer to a final concentration of 4 μg/mL.
Test compounds were dissolved in DMSO to 10 mM. Compounds were further diluted in vehicle to various concentrations in the range of 405 μM to 4.05 μM (13.5×final compound concentration in screening plate).
The screening procedure for this assay was as follows: 15 μL of BACE working solution was pipetted into each well of a 96-well plate. To each well was then pipetted 2 μL of test compound at the selected concentration. Test compound and BACE were then mixed with a pipettor and incubated for 20 min at room temperature. To each well was then added 10 μL of the FS1 substrate working solution. The plates were then incubated for 1 hour at room temperature. The fluorescence for each well was then measured on an LJL analyst (Ex 360 nm/Em 530 nm).
The procedure for the blank (negative control) was as follows. 15 μL of assay buffer was pipetted into each well to be used as a blank control. To each well was then added 2 μL of vehicle and 10 μL of FS1-substrate working solution. The plates were then incubated for 1 hour at room temperature. The fluorescence was measured on an LJL analyst (Ex 360 nm/Em 530 nm).
The procedure for the positive control was as follows: 15 μL of BACE working solution was pipetted into each well to be used as a positive control. To each well was then pipetted 2 μL of vehicle. Vehicle and BACE were then mixed with a pipettor and incubated for 20 min at room temperature. To each well was then added 10 μL of the FS1 substrate working solution. The plates were then incubated for 1 hour at room temperature. The fluorescence (Fl) was then measured on an LJL analyst (Ex 360 nm/Em 530 nm).
For test compounds, % inhibition was determined at each concentration as follows: […]

The target of a further assay is T2, human BACE-1 (Homo sapiens, UniProt P56817).
T2 construct: purchased CEREP (contract assay) 761-B
T2 sequence (P56817 46-501): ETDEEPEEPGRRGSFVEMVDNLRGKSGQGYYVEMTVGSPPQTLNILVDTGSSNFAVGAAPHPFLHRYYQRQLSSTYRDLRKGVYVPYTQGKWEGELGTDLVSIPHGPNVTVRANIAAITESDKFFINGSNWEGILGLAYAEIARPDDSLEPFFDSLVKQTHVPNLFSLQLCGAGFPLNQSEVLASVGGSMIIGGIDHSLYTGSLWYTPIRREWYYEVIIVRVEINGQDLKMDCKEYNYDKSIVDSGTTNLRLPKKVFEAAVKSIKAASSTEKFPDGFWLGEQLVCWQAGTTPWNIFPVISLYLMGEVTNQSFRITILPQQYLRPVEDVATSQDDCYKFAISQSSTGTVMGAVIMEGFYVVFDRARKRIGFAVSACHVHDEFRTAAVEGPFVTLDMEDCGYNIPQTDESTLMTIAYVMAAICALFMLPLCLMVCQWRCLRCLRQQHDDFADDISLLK
Put plainly: In Vitro BACE Assay run by CEREP (Example 14). Particulars: recombinant enzyme, 60 min at 37° C., pH 4.5; for % Inhibition 1 μM / inhibition at 1 µM: 1 μM compound. The assay is classed as biochemical. As for the experimental part:
This assay was run by CEREP (Catalog Ref. 761-B, Referred to SOP No. 1C131; ERMOLIEFF, J., LOY, J. A., KOELSCH, G. and TANG, J., Proteolytic activation of recombinant pro-memapsin 2 (pro-BACE) studied with new fluorogenic substrates, Biochemistry, (2000) Vol. 39, p. 12450).
More specifically the assay, run at 50 μL in a 96 well plate, evaluated the effect of test compound on the activity of the human BACE-1 quantified by measuring the formation of Mca-S-E-V-N-L-NH2 from Mca-S-E-V-N-L-D-A-E-F-R-K(Dnp)-R-R-NH2, using a recombinant enzyme.
The test compound, reference compound or water (control) was added to a buffer containing 0.09 M sodium acetate (pH 4.5) and 0.25 μg BACE-1. Compound interference with the fluorimetric detection method due to autofluorescence was then checked by measurements at the wavelengths defined to evaluate the enzyme activity. Thereafter, the reaction was initiated by adding 7.5 μM of the substrate Mca-S-E-V-N-L-D-A-E-F-R-K(Dnp)-R-R-NH2 and the mixture was incubated for 60 min at 37° C. For control basal measurement, the substrate was omitted from the reaction mixture. Immediately after the incubation, the fluorescence intensity emitted by the reaction product Mca-S-E-V-N-L-NH2 was measured at λex=320 nm and λem=405 nm using a microplate reader (Ultra, Tecan). The standard inhibitory reference compound was OM99-2, which was tested in each experiment at several concentrations to obtain an inhibition curve from which its IC50 value was calculated.

T1 sequence (P56817 46-501): as above

As to `COC(=O)CCCc1cc2cc(Oc3ccccc3)ccc2nc1N` [compound 504], at β-secretase (BACE), the “% Inhibition (Example 10) @ 0.3 μM” value stood at 21%, the “% Inhibition (Example 10) @ 1 μM” value was found to be 21% and the “% Inhibition (Example 10) @ 3 μM” value is 18%.
Turning to `CC(C)(C)CCN(Cc1ncc[nH]1)C(=O)CCC(c1cc2cc(Oc3ccccc3)ccc2nc1N)C1CCOCC1` (stereo not shown) [compound 57], the “% Inhibition 1 μM” value on human BACE-1 was determined as 93%.
For `Nc1nc2ccc(Oc3ccccc3)cc2cc1CCNC(=O)C1CCCCC1` [compound 4], on β-secretase (BACE), the “% Inhibition (Example 10) @ 0.3 μM” value turned out to be 14%, the “% Inhibition (Example 10) @ 1 μM” value is reported as 9% and the “% Inhibition (Example 10) @ 3 μM” value is given as 42%.
Taken in the same sequence, the figures for `COCCNC(=O)CCc1cc2cc(Oc3ccccc3)ccc2nc1N` [compound 5] were 22%, 41% and 37%.
For the compound `Cn1ccnc1CN(CC(C)(C)C)C(=O)CCC(c1cc2cc(Oc3ccccc3)ccc2nc1N)C1CCCCC1` (stereo not shown) [compound 43], on human BACE-1, the inhibition at 1 µM was 88% and the IC50 came out at 650 nM.
Taken in the same sequence, the figures for `Cn1ccnc1CN(C(=O)CCC(c1cc2cc(Oc3ccccc3)ccc2nc1N)C1CCOCC1)C1CCCCC1` (stereo not shown) [compound 54] were 85% and 450 nM.
On to `Cc1ccccc1N1CCN(C(=O)CCc2cc3cc(Oc4ccccc4)ccc3nc2N)CC1` [compound 75], for which, on β-secretase (BACE), the “% Inhibition (Example 10) @ 0.3 μM” value amounted to 24%, the “% Inhibition (Example 10) @ 1 μM” value is given as −8% and the “% Inhibition (Example 10) @ 3 μM” value was 17%.
With `CN(C(=O)CCCc1cc2cc(Oc3ccccc3)ccc2nc1N)C1CCCCC1` [compound 18], on β-secretase (BACE), the “% Inhibition (Example 10) @ 0.3 μM” value is 29%, the “% Inhibition (Example 10) @ 1 μM” value came to 26% and the “% Inhibition (Example 10) @ 3 μM” value was 36%.
Take `Nc1nc2ccc(Oc3ccccc3)cc2cc1C(CCC(=O)NCc1nnnn1Cc1ccccc1)C1CCOCC1` (stereo not shown) [compound 31]: the inhibition at 0.3 µM on human BACE-1 (0.3 μM compound) is 32%. In addition, on human BACE-1, the inhibition at 1 µM is 59% and the IC50 is 740 nM.
Turning to `Nc1nc2ccc(Oc3ccccc3)cc2cc1C(CCC(=O)N[C@H]1CC[C@H](C(=O)O)CC1)C1CCCCC1` (stereo partly shown) [compound 22], on β-secretase (BACE), the “% Inhibition (Example 10) @ 0.3 μM” value is 0.6%, the “% Inhibition (Example 10) @ 1 μM” value is −19% and the “% Inhibition (Example 10) @ 3 μM” value is −3%.
In the case of `CN(Cc1ccccc1)C(=O)CCC(c1cc2cc(Oc3ccccc3)ccc2nc1N)C1CCCCC1` (stereo not shown) [compound 38], the “% Inhibition 0.3 μM” value at human BACE-1 (0.3 μM compound) is listed as 8%. Besides, the “% Inhibition 1 μM” value on human BACE-1 is given as 9%.
For `Nc1nc2ccc(Oc3ccccc3)cc2cc1C(CCC(=O)N(CCO)C1CCCCC1)C1CCOCC1` (stereo not shown) [compound 50], on human BACE-1, the “% Inhibition 1 μM” value came to 87% and the half-inhibitory concentration (IC50) amounted to 740 nM.
As for `Cn1ccnc1CN(CCC(C)(C)C)C(=O)CCC(c1cc2cc(Oc3ccccc3)ccc2nc1N)C1CCCCC1` (stereo not shown) [compound 70], the “% Inhibition 1 μM” value at human BACE-1 (1 µM) was 10%.
In the case of `Cn1ccnc1CN(CC(C)(C)C)C(=O)CCC(c1cc2cc(Oc3ccccc3)ccc2nc1N)C1CCOCC1` (stereo not shown) [compound 55], on human BACE-1, the inhibition at 1 µM amounted to 83% and the IC50 stood at 420 nM.
As to `Nc1nc2ccc(Oc3ccccc3)cc2cc1C(CCC(=O)NC1CN2CCC1CC2)C1CCOCC1` (stereo not shown) [compound 51], at human BACE-1, the inhibition at 1 µM came to 56% and the IC50 came out at 1200 nM.
Take `Nc1nc2ccc(Oc3ccccc3)cc2cc1CCC(=O)NCC1CCCCC1` [compound 11]: on β-secretase (BACE), the “% Inhibition (Example 10) @ 1 μM” value is 5% and the “% Inhibition (Example 10) @ 3 μM” value is 81%.
On to `Nc1nc2ccc(Oc3ccccc3)cc2cc1C(CCC(=O)N(Cc1ncc[nH]1)C1CCCCC1)C1CCOCC1` (stereo not shown) [compound 30], for which, at human BACE-1, the inhibition at 1 µM came to 91% and the IC50 is 410 nM.
Taken in the same sequence, the figures for `Nc1nc2ccc(Oc3ccccc3)cc2cc1C(CCC(=O)N(Cc1ccccn1)C1CCCCC1)C1CCOCC1` (stereo not shown) [compound 60] were 83% and 320 nM.
As to `Cn1ccnc1CN(CCC(C)(C)C)C(=O)CCC(c1cc2cc(Oc3ccccc3)ccc2nc1N)C1CCCCC1` (stereo not shown) [compound 72], at human BACE-1 (1 µM), the “% Inhibition 1 μM” value is on record as 81%.
On to `COC(=O)[C@H]1CC[C@H](NC(=O)CCC(c2cc3cc(Oc4ccccc4)ccc3nc2N)C2CCCCC2)CC1` (stereo partly shown) [compound 20], for which, on β-secretase (BACE), the “% Inhibition (Example 10) @ 0.3 μM” value is −8%, the “% Inhibition (Example 10) @ 1 μM” value was −11% and the “% Inhibition (Example 10) @ 3 μM” value was found to be 34%.
For `Nc1nc2ccc(Oc3ccccc3)cc2cc1C(CCC(=O)N(c1ncc[nH]1)C1CCCCC1)C1CCCCC1` (stereo not shown) [compound 41], the inhibition at 0.3 µM on human BACE-1 (0.3 μM compound) turned out to be 11%. Besides, on human BACE-1, the inhibition at 1 µM was 79% and the 50% inhibitory concentration (IC50) turned out to be 470 nM.
`Nc1nc2ccc(Oc3ccccc3)cc2cc1C(CCC(=O)N(CN1CCCC1)C1CCCCC1)C1CCOCC1` (stereo not shown) [compound 64]: on human BACE-1, the inhibition at 1 µM worked out at 83% and the IC50 came to 190 nM.
For `Nc1nc2ccc(Oc3ccccc3)cc2cc1C(CCC(=O)N(CCO)CC1CC1)C1CCOCC1` (stereo not shown) [compound 68], at human BACE-1, the inhibition at 1 µM came out at 41% and the IC50 stood at 1500 nM.
For the compound `Cn1ccnc1CN(C(=O)CCC(c1cc2cc(Oc3ccccc3)ccc2nc1N)C1CCCCC1)C1CCCCC1` (stereo not shown) [compound 39], on human BACE-1 (0.3 μM compound), the inhibition at 0.3 µM came out at 16%. Moreover, at human BACE-1, the IC50 is 490 nM.
In the case of `Nc1nc2ccc(Oc3ccccc3)cc2cc1CCC(=O)N1CCN(c2cccc(F)c2)CC1` [compound 76], on β-secretase (BACE), the “% Inhibition (Example 10) @ 0.3 μM” value came out at 28% and the “% Inhibition (Example 10) @ 3 μM” value is listed as 16%.
Taken in the same sequence, the figures for `COC(=O)[C@H]1CC[C@@H](NC(=O)CCC(c2cc3cc(Oc4ccccc4)ccc3nc2N)C2CCCCC2)CC1` (stereo partly shown) [compound 19] were −15% and 24%.
Consider `Nc1nc2ccc(Oc3ccccc3)cc2cc1C(CCC(=O)N[C@H]1CC[C@@H](C(=O)O)CC1)C1CCCCC1` (stereo partly shown) [compound 21], for which, on β-secretase (BACE), the “% Inhibition (Example 10) @ 0.3 μM” value is listed as 0.5%, the “% Inhibition (Example 10) @ 1 μM” value is −1% and the “% Inhibition (Example 10) @ 3 μM” value is given as 10%.
Taken in the same sequence, the figures for `CCCCNC(=O)CCc1cc2cc(Oc3ccccc3)ccc2nc1N` [compound 12] were −2%, 0.8% and 19%.
On to `Nc1nc2ccc(Oc3ccccc3)cc2cc1CCC(=O)N[C@H](CO)CC1CCCCC1` [compound 14], for which, on β-secretase (BACE), the “% Inhibition (Example 10) @ 0.3 μM” value is −14%, the “% Inhibition (Example 10) @ 1 μM” value was −27% and the “% Inhibition (Example 10) @ 3 μM” value is listed as −15%.
The corresponding values for `Nc1nc2ccc(Oc3ccccc3)cc2cc1CCCC(=O)NC12CC3CC(CC(C3)C1)C2` [compound 17] are 19%, 20% and 46%.
Taken in the same sequence, the figures for `C=CCC(c1cc2cc(Oc3ccccc3)ccc2nc1N)C1CCCCC1` (stereo not shown) [compound 503] were 28%, 19% and 36%.
The corresponding values for `CCN(CC)CCNC(=O)CCc1cc2cc(Oc3ccccc3)ccc2nc1N` [compound 10] are −11%, −13% and −0.3%.

The record behind these values is patent publication US7776882B2, “2-amino-3,4-dihydro-quinoline derivatives useful as inhibitors of β-secretase (BACE)” (priority 2006, dated 2010).
